Measured values from ChEMBL document CHEMBL1201861, “Genomics of Drug Sensitity in Cancer screening data, Wellcome Trust Sanger Institute”.

Experiments:
Test in all cases: cells
[1] = test system: COLO-824; format: functional, cell-based, Homo sapiens; conditions: Homo sapiens, COLO-824
Description: SANGER: Inhibition of human COLO-824 cell growth in a cell viability assay.

[2] = test system: COR-L88; format: functional, cell-based, Homo sapiens; conditions: Homo sapiens, COR-L88;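 note: growth inhibition of COR-L88 cells, read out with a cell viability assay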
Description: SANGER: Inhibition of human COR-L88 cell growth in a cell viability assay.

[3] = test system: D-502MG; format: functional, cell-based, Homo sapiens; conditions: Homo sapiens, D-502MG
Description: SANGER: Inhibition of human D-502MG cell growth in a cell viability assay.

[4] = test system: DJM-1; format: functional, cell-based, Homo sapiens; conditions: Homo sapiens, DJM-1;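 note: growth inhibition of human DJM-1 cells, read out by a cell viability assay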
Description: SANGER: Inhibition of human DJM-1 cell growth in a cell viability assay.

[5] = test system: DMS-114; format: functional, cell-based, Homo sapiens; conditions: Homo sapiens, DMS-114
[6] = test system: ES5; format: functional, cell-based, Homo sapiens; conditions: Homo sapiens, ES5;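 note: growth inhibition of human ES5 cells, read out by a cell viability assay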
Description: SANGER: Inhibition of human ES5 cell growth in a cell viability assay.

[7] = test system: EW-18; format: functional, cell-based, Homo sapiens; conditions: Homo sapiens, EW-18;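 note: growth inhibition of EW-18 cells, read out by a cell viability assay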
Description: SANGER: Inhibition of human EW-18 cell growth in a cell viability assay.

[8] = test system: GI-1; format: functional, cell-based, Homo sapiens; conditions: Homo sapiens, GI-1;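 note: growth inhibition of human GI-1 cells, measured with a cell viability readout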
Description: SANGER: Inhibition of human GI-1 cell growth in a cell viability assay.

[9] = test system: HC-1; format: functional, cell-based, Homo sapiens; conditions: Homo sapiens, HC-1;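 note: growth inhibition of HC-1 cells measured by a cell viability assay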
Description: SANGER: Inhibition of human HC-1 cell growth in a cell viability assay.

[10] = test system: HCC1187; format: functional, cell-based, Homo sapiens; conditions: Homo sapiens, HCC1187;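 note: growth inhibition of HCC1187 cells, read out with a cell viability assay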
Description: SANGER: Inhibition of human HCC1187 cell growth in a cell viability assay.

[11] = test system: HH; format: functional, cell-based, Homo sapiens; conditions: Homo sapiens, HH
Description: SANGER: Inhibition of human HH cell growth in a cell viability assay.

[12] = test system: HuTu80; format: functional, cell-based, Homo sapiens, HUTU-80; conditions: Homo sapiens, HuTu80;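 note: growth inhibition of HuTu80 human cells, determined with a cell viability readout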
Description: SANGER: Inhibition of human HUTU-80 cell growth in a cell viability assay.

[13] = test system: K5; format: functional, cell-based, Homo sapiens; conditions: Homo sapiens, K5
Description: SANGER: Inhibition of human K5 cell growth in a cell viability assay.

[14] = test system: KALS-1; format: functional, cell-based, Homo sapiens; conditions: Homo sapiens, KALS-1;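 note: growth inhibition of KALS-1 cells, determined with a cell viability assay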
Description: SANGER: Inhibition of human KALS-1 cell growth in a cell viability assay.

[15] = test system: KARPAS-299; format: functional, cell-based, Homo sapiens; conditions: Homo sapiens, KARPAS-299
Description: SANGER: Inhibition of human KARPAS-299 cell growth in a cell viability assay.

[16] = test system: KE-37; format: functional, cell-based, Homo sapiens; conditions: Homo sapiens, KE-37;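 note: growth inhibition of KE-37 cells, read out with a cell viability assay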
Description: SANGER: Inhibition of human KE-37 cell growth in a cell viability assay.

[17] = test system: KM-H2; format: functional, cell-based, Homo sapiens; conditions: Homo sapiens, KM-H2;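 note: growth inhibition of KM-H2 cells, read out by a cell viability assay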
Description: SANGER: Inhibition of human KM-H2 cell growth in a cell viability assay.

[18] = test system: KNS-42; format: functional, cell-based, Homo sapiens; conditions: Homo sapiens, KNS-42;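 note: growth inhibition of KNS-42 cells, read out with a cell viability assay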
Description: SANGER: Inhibition of human KNS-42 cell growth in a cell viability assay.

[19] = test system: LB2518-MEL; format: functional, cell-based, Homo sapiens; conditions: Homo sapiens, LB2518-MEL;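 note: growth inhibition of human LB2518-MEL cells, measured with a cell viability assay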
Description: SANGER: Inhibition of human LB2518-MEL cell growth in a cell viability assay.

[20] = test system: LB771-HNC; format: functional, cell-based, Homo sapiens; conditions: Homo sapiens, LB771-HNC;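 note: growth inhibition of LB771-HNC human cells, read out with a cell viability assay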
Description: SANGER: Inhibition of human LB771-HNC cell growth in a cell viability assay.

[21] = test system: LB831-BLC; format: functional, cell-based, Homo sapiens; conditions: Homo sapiens, LB831-BLC;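 note: growth inhibition of LB831-BLC cells, read out with a cell viability assay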
Description: SANGER: Inhibition of human LB831-BLC cell growth in a cell viability assay.

[22] = test system: LOX IMVI; format: functional, cell-based, Homo sapiens; conditions: Homo sapiens, LOX IMVI
Description: SANGER: Inhibition of human LOXIMVI cell growth in a cell viability assay.

[23] = test system: LS-1034; format: functional, cell-based, Homo sapiens; conditions: Homo sapiens, LS-1034
Description: SANGER: Inhibition of human LS-1034 cell growth in a cell viability assay.

[24] = test system: LU-139; format: functional, cell-based, Homo sapiens; conditions: Homo sapiens, LU-139
Description: SANGER: Inhibition of human LU-139 cell growth in a cell viability assay.

[25] = test system: Lu-65; format: functional, cell-based, Homo sapiens; conditions: Homo sapiens, Lu-65;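 note: growth inhibition of Lu-65 cancer cells, read out by a cell viability assay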
Description: SANGER: Inhibition of human LU-65 cell growth in a cell viability assay.

[26] = test system: MHH-NB-11; format: functional, cell-based, Homo sapiens; conditions: Homo sapiens, MHH-NB-11;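 note: growth inhibition of human MHH-NB-11 cells, read out by a cell viability assay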
Description: SANGER: Inhibition of human MHH-NB-11 cell growth in a cell viability assay.

[27] = test system: MOLT-16; format: functional, cell-based, Homo sapiens; conditions: Homo sapiens, MOLT-16;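 note: growth inhibition of human MOLT-16 cells, read out with a cell viability assay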
Description: SANGER: Inhibition of human MOLT-16 cell growth in a cell viability assay.

[28] = test system: MSTO-211H; format: functional, cell-based, Homo sapiens; conditions: Homo sapiens, MSTO-211H
Description: SANGER: Inhibition of human MSTO-211H cell growth in a cell viability assay.

[29] = test system: NB10; format: functional, cell-based, Homo sapiens; conditions: Homo sapiens, NB10;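 note: growth inhibition of NB10 cells, read out by a cell viability assay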
Description: SANGER: Inhibition of human NB10 cell growth in a cell viability assay.

[30] = test system: NCI-H1648; format: functional, cell-based, Homo sapiens; conditions: Homo sapiens, NCI-H1648;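 note: cell viability assay measuring inhibition of NCI-H1648 cell growth, from the Sanger screening data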
Description: SANGER: Inhibition of human NCI-H1648 cell growth in a cell viability assay.

[31] = test system: NCI-H1650; format: functional, cell-based, Homo sapiens; conditions: Homo sapiens, NCI-H1650;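 note: growth inhibition of human NCI-H1650 cells measured by a cell viability assay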
Description: SANGER: Inhibition of human NCI-H1650 cell growth in a cell viability assay.

[32] = test system: NCI-H226; format: functional, cell-based, Homo sapiens; conditions: Homo sapiens, NCI-H226;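 note: cell viability read-out used to gauge growth inhibition of the cells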
Description: SANGER: Inhibition of human NCI-H226 cell growth in a cell viability assay.

[33] = test system: NCI-H82; format: functional, cell-based, Homo sapiens; conditions: Homo sapiens, NCI-H82;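 note: growth inhibition of NCI-H82 cells, measured with a cell viability readout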
Description: SANGER: Inhibition of human NCI-H82 cell growth in a cell viability assay.

[34] = test system: SNU-5; format: functional, cell-based, Homo sapiens; conditions: Homo sapiens, SNU-5;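 note: cell viability readout used to measure growth inhibition in human NCI-SNU-5 cells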
Description: SANGER: Inhibition of human NCI-SNU-5 cell growth in a cell viability assay.

[35] = test system: NEC8; format: functional, cell-based, Homo sapiens; conditions: Homo sapiens, NEC8;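 note: growth inhibition of human NEC8 cells, read out by a cell viability assay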
Description: SANGER: Inhibition of human NEC8 cell growth in a cell viability assay.

[36] = test system: OMC-1; format: functional, cell-based, Homo sapiens; conditions: Homo sapiens, OMC-1;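 note: growth inhibition of the OMC-1 cell line, measured by a cell viability assay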
Description: SANGER: Inhibition of human OMC-1 cell growth in a cell viability assay.

[37] = test system: OVCAR-4; format: functional, cell-based, Homo sapiens; conditions: Homo sapiens, OVCAR-4;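 note: growth inhibition of human OVCAR-4 cells, measured with a cell viability assay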
Description: SANGER: Inhibition of human OVCAR-4 cell growth in a cell viability assay.

[38] = test system: RS4-11; format: functional, cell-based, Homo sapiens; conditions: Homo sapiens, RS4-11;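 note: growth inhibition of RS4-11 cells, read out by a cell viability assay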
Description: SANGER: Inhibition of human RS4-11 cell growth in a cell viability assay.

[39] = test system: Ramos-2G6-4C10; format: functional, cell-based, Homo sapiens; conditions: Homo sapiens, Ramos-2G6-4C10;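 note: growth inhibition of the cell line, measured by a cell viability read-out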
Description: SANGER: Inhibition of human Ramos-2G6-4C10 cell growth in a cell viability assay.

[40] = test system: SCH; format: functional, cell-based, Homo sapiens; conditions: Homo sapiens, SCH;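 note: growth inhibition of human SCH cells, read out in a cell viability assay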
Description: SANGER: Inhibition of human SCH cell growth in a cell viability assay.

[41] = test system: SJSA-1; format: functional, cell-based, Homo sapiens; conditions: Homo sapiens, SJSA-1;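 note: growth inhibition of human SJSA-1 cells, read out through a cell viability measurement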
Description: SANGER: Inhibition of human SJSA-1 cell growth in a cell viability assay.

[42] = test system: SNB-75; format: functional, cell-based, Homo sapiens; conditions: Homo sapiens, SNB-75;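 note: cell viability assay measuring growth inhibition of human SNB-75 cells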
Description: SANGER: Inhibition of human SNB75 cell growth in a cell viability assay.

[43] = test system: ALL-PO; format: functional, cell-based, Homo sapiens; conditions: Homo sapiens, ALL-PO;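 note: growth inhibition of ALL-PO cells, read out by a cell viability assay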
Description: SANGER: Inhibition of human ALL-PO cell growth in a cell viability assay.

[44] = test system: AM-38; format: functional, cell-based, Homo sapiens; conditions: Homo sapiens, AM-38;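 note: growth inhibition of AM-38 cells of human origin, read out by a cell viability assay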
Description: SANGER: Inhibition of human AM-38 cell growth in a cell viability assay.

[45] = test system: ATN-1; format: functional, cell-based, Homo sapiens; conditions: Homo sapiens, ATN-1;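 note: growth inhibition of human ATN-1 cells, read out with a cell viability assay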
Description: SANGER: Inhibition of human ATN-1 cell growth in a cell viability assay.

[46] = test system: BB30-HNC; format: functional, cell-based, Homo sapiens; conditions: Homo sapiens, BB30-HNC;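 note: growth inhibition of the cultured cell line, read out by a cell viability assay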
Description: SANGER: Inhibition of human BB30-HNC cell growth in a cell viability assay.

[47] = test system: TE-11; format: functional, cell-based, Homo sapiens; conditions: Homo sapiens, TE-11;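 note: growth inhibition of human TE-11 cells, read out by a cell viability assay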
Description: SANGER: Inhibition of human TE-11 cell growth in a cell viability assay.

[48] = test system: TGBC24TKB; format: functional, cell-based, Homo sapiens; conditions: Homo sapiens, TGBC24TKB;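 note: growth inhibition of human TGBC24TKB cells, read out with a cell viability assay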
Description: SANGER: Inhibition of human TGBC24TKB cell growth in a cell viability assay.

[49] = test system: TGW; format: functional, cell-based, Homo sapiens; conditions: Homo sapiens, TGW;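 note: growth inhibition of human TGW cells, read out with a cell viability assay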
Description: SANGER: Inhibition of human TGW cell growth in a cell viability assay.

Compound: CCC/C=C/C=C/C(=O)O[C@H]1/C(=C/C(=O)OC)C[C@H]2C[C@H]([C@@H](C)O)OC(=O)C[C@H](O)C[C@@H]3C[C@H](OC(C)=O)C(C)(C)[C@](O)(C[C@@H]4C/C(=C/C(=O)OC)C[C@H](/C=C/C(C)(C)[C@]1(O)O2)O4)O3 [BRYOSTATIN 1]
- IC50 [1]: > 8 nM
- IC50 [2]: > 8 nM
- IC50 [3]: > 8 nM
- IC50 [4]: > 8 nM
- IC50 [5]: > 8 nM
- IC50 [6]: > 8 nM
- IC50 [7]: > 8 nM
- IC50 [8]: > 8 nM
- IC50 [9]: > 8 nM
- IC50 [10]: > 8 nM
- IC50 [11]: > 8 nM
- IC50 [12]: > 8 nM
- IC50 [13]: > 8 nM
- IC50 [14]: > 8 nM
- IC50 [15]: > 8 nM
- IC50 [16]: > 8 nM
- IC50 [17]: > 8 nM
- IC50 [18]: > 8 nM
- IC50 [19]: > 8 nM
- IC50 [20]: > 8 nM
- IC50 [21]: > 8 nM
- IC50 [22]: > 8 nM
- IC50 [23]: > 8 nM
- IC50 [24]: > 8 nM
- IC50 [25]: > 8 nM
- IC50 [26]: > 8 nM
- IC50 [27]: > 8 nM
- IC50 [28]: > 8 nM
- IC50 [29]: > 8 nM
- IC50 [30]: > 8 nM
- IC50 [31]: > 8 nM
- IC50 [32]: > 8 nM
- IC50 [33]: > 8 nM
- IC50 [34]: > 8 nM
- IC50 [35]: > 8 nM
- IC50 [36]: > 8 nM
- IC50 [37]: > 8 nM
- IC50 [38]: > 8 nM
- IC50 [39]: > 8 nM
- IC50 [40]: > 8 nM
- IC50 [41]: > 8 nM
- IC50 [42]: > 8 nM
- IC50 [43]: > 8 nM
- IC50 [44]: > 8 nM
- IC50 [45]: > 8 nM
- IC50 [46]: > 8 nM
- IC50 [47]: > 8 nM
- IC50 [48]: > 8 nM
- IC50 [49]: > 8 nM

Compound: COc1cccc2c1C(=O)c1c(O)c3c(c(O)c1C2=O)C[C@@](O)(C(=O)CO)C[C@@H]3O[C@H]1C[C@H](N)[C@H](O)[C@H](C)O1 [DOXORUBICIN]
- IC50 [1]: > 1020 nM
- IC50 [2]: > 1020 nM
- IC50 [3]: > 1020 nM
- IC50 [4]: 102 nM
- IC50 [5]: 396 nM
- IC50 [6]: 39.2 nM
- IC50 [7]: 251 nM
- IC50 [8]: 69.7 nM
- IC50 [9]: 37.3 nM
- IC50 [10]: 591 nM
- IC50 [11]: 241 nM
- IC50 [12]: 2.12 nM
- IC50 [13]: 96.9 nM
- IC50 [14]: 29.3 nM
- IC50 [15]: > 1020 nM
- IC50 [16]: 21 nM
- IC50 [17]: 90.7 nM
- IC50 [18]: 243 nM
- IC50 [19]: 413 nM
- IC50 [20]: > 1020 nM
- IC50 [21]: 206 nM
- IC50 [22]: 389 nM
- IC50 [23]: 385 nM
- IC50 [24]: 345 nM
- IC50 [25]: 346 nM
- IC50 [26]: 220 nM
- IC50 [27]: 290 nM
- IC50 [28]: > 1020 nM
- IC50 [29]: 188 nM
- IC50 [30]: 132 nM
- IC50 [31]: 78.6 nM
- IC50 [32]: 417 nM
- IC50 [33]: > 1020 nM
- IC50 [34]: 570 nM
- IC50 [35]: 33.6 nM
- IC50 [36]: 172 nM
- IC50 [37]: 157 nM
- IC50 [38]: 19.1 nM
- IC50 [39]: 295 nM
- IC50 [40]: > 1020 nM
- IC50 [41]: 111 nM
- IC50 [42]: 149 nM
- IC50 [43]: 65 nM
- IC50 [44]: 282 nM
- IC50 [45]: 128 nM
- IC50 [46]: 29.8 nM
- IC50 [47]: 241 nM
- IC50 [48]: > 1020 nM
- IC50 [49]: > 1020 nM
